Reference: patent US5716971A, “Pyridine derivatives, their production and use” (Takeda Chemical Industries, Ltd., priority 1993, dated 1998)
Where two headings read alike, the source gives them in different places.

Assays:
[1] = system: specimen of rat aorta; assay: Vasorelaxation activity in a specimen of rat aorta: contraction caused by TEA and BaCl2; details: TEA (30-45 mM) and BaCl2 (0.3 mM) contraction, read-out: constriction inhibitory ratio
Outline: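 Aortic rings (5 mm) from male Wistar rats aged 10–13 weeks were held in oxygenated Krebs solution at 36 °C with isometric tension recorded. After 1 h stabilisation, rings were contracted with TEA (30-45 mM) plus BaCl2 (0.3 mM); once contraction was steady (~15 min), compound was added and relaxation measured.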

[2] = system: specimen of rat aorta; assay: Vasorelaxation activity in a specimen of rat aorta: contraction caused by KCl; details: read-out: constriction inhibitory ratio
Outline: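 Aortic rings from male Wistar rats (10–13 weeks) in oxygenated Krebs at 36 °C, isometric tension recorded. Contraction induced with KCl ([…]) instead of TEA/BaCl2; compound added at steady state (~15 min) and relaxation measured.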

[3] = system: Spontaneously hypertensive rats; assay: Hypotensive activity in rats (Tail Cuff Method), oral; format: in vivo; details: Rattus norvegicus, SHR
Description: Hypotensive activity in rats (Tail Cuff Method)
Spontaneously hypertensive rats (SHR, male, 20 to 23 week old) were warmed up to 36° C. The blood pressure at the tail aorta was measured by the tail cuff method. The blood pressure was measured three times, i.e. before oral administration of the test compound, two hours after the administration and five hours after the administration. The test compound was orally administered in the state of a suspension in gum arabic.
Maximal, hypotensive effect against the blood pressure before the administration is shown as % pre. in Table 66. As a result, it is apparent that the compounds of this invention show hypotensive activity.

[4] = system: anesthetized dogs; assay: Action of increasing coronary blood flow in anesthetized dogs (administration into coronary artery); format: in vivo, dog; details: injected into coronary artery, 30 ug/day, anesthetized Beagle dogs
Description: Action of increasing coronary blood flow in anesthetized dogs (Administration into coronary artery) Method: Beagle dogs (10 to 12 kg body weight) were anesthetized with pentobarbital and subjected to thoractomy under artificial respiration. A by-pass fitted with an electromagnetic flowmeter (Nippon Koden) was prepared between the left coronary artery and left carotid artery,and the volume of coronary blood flow was measured. […]
Maximal change rate against the value measured before the administration (% of basal flow) and the duration period [shown in terms of the time (T1/2) in which the activity is reduced to half] are shown in Table 67. As a result, it is apparent that the compounds of this invention show action of increasing coronary blood flow.

[5] = after 2 hours, read-out: Maximal hypotensive effect against blood pressure before administration (% pre.), after 2 hours
[6] = after 5 hours, read-out: Maximal hypotensive effect against blood pressure before administration (% pre.), after 5 hours

SMILES | inhibition at 1 µM [1] | inhibition at 3 µM [1] | inhibition at 1 µM [2] | inhibition at 3 µM [2] | inhibition in vivo at 10 mg/kg [3, 5] | inhibition in vivo at 10 mg/kg [3, 6] | duration (T1/2): time in which the activity is reduced to half [4] | inhibition in vivo at 30 mg/kg [3, 5] | inhibition in vivo at 30 mg/kg [3, 6]
CC(C)(C)O/N=C(/c1cc(Br)c(Cl)cc1O)c1ncccc1O [Compound 38, (Z)-2-(5-bromo-4-chloro-2-hydroxybenzoyl)-3-hydroxypyridine O-t-butyloxime] | 92% | 100% | 0% | 1% | 29% | 13% | 4.7 min | – | –
CC(C)(C)C/N=C(/c1cc(Br)ccc1O)c1cccc[n+]1[O-] [Compound 105, (Z)-2-[(5-bromo-2-hydroxy)-α-neopentyliminobenzyl]pyridine N-oxide] | 46% | 87% | 4% | 28% | – | – | 2.9 min | 59% | 44%
CC(C)(C)O/N=C(/c1cc(F)c(F)cc1O)c1ncccc1O [Compound 34, (Z)-2-(4,5-difluoro-2-hydroxybenzoyl)-3-hydroxypyridine O-t-butyloxime] | 54% | 59% | 4% | 18% | 27% | 10% | 3.7 min | – | –
CC(C)(C)O/N=C(/c1cc(Cl)c(Cl)cc1O)c1ncccc1O [Compound 32, (Z)-2-(4,5-dichloro-2-hydroxybenzoyl)-3-hydroxypyridine O-t-butyloxime] | 87% | 100% | -2% | 11% | 19% | 18% | 3.0 min | – | –
CC(C)(C)O/N=C(/c1cc(F)c(Cl)cc1O)c1ncccc1O [Compound 40, (Z)-2-(4-chloro-5-fluoro-2-hydroxybenzoyl)-3-hydroxypyridine O-t-butyloxime] | 85% | 72% | 0% | 0% | 30% | 11% | 2.8 min | – | –
